Values quoted from earlier work, collected in patent US20050282773A1, “Modified polysaccharides in combination with anti-cancer drugs for enhanced treatment of cancer” (Pro-Pharmaceuticals, Inc., priority 2004, published 2005).

How the values were obtained:
L-1 sarcoma cells = settings: in vivo
B16 melanoma cells = settings: in vivo

Compound | liver metastasis of L-1 sarcoma cells (L-1 sarcoma cells) | metastasis of B16 melanoma cells (B16 melanoma cells)
O=C[C@H](O)[C@@H](O)[C@@H](O)[C@H](O)CO [D-galactose] | inhibited | –
CC(=O)N[C@H]1[C@H](O[C@H]2[C@@H](O)[C@@H](CO)O[C@@H](O[C@H]3[C@H](O)[C@@H](O)C(O)O[C@@H]3CO)[C@@H]2O)O[C@H](CO)[C@@H](O)[C@@H]1O[C@@H]1O[C@H](CO)[C@H](O)[C@H](O)[C@H]1O (stereo partly shown) [lacto-N-tetrose] | – | inhibit
CO[C@H]1O[C@H](CO)[C@@H](O[C@@H]2O[C@H](CO)[C@H](O)[C@H](O)[C@H]2O)[C@H](O)[C@H]1O [methyl-α-D-lactoside] | – | inhibit
arabinogalactose | inhibited | –
